Results from ChEMBL document CHEMBL1154744, “HIV-1 protease inhibitors with a transition-state mimic comprising a tertiary alcohol: improved antiviral activity in cells” (J Med Chem, 2010).

How the values were obtained:
[1] = test system: Human immunodeficiency virus 1; experiment: Antiviral activity against HIV1 infected in human MT4 cells assessed as inhibition of virus-induced cytopathogenicity after 6 days by XTT assay; type: functional, organism-based; conditions: Human immunodeficiency virus 1, MT4, 144 h
[2] = Cytotoxicity against human MT4 cells assessed as decrease in cell proliferation after 5 days by XTT assay; type: cell-based
Protease = Protease (Human immunodeficiency virus 1, UniProt Q9YQ12); experiment: Inhibition of HIV1 protease expressed in Escherichia coli by fluorometric assay
[3] = Metabolic stability in liver microsomes assessed as intrinsic clearance; type: ADME, Microsome
[4] = Apparent permeability across human Caco-2 cells; type: ADME, cell-based
[5] = test system: Human immunodeficiency virus 1; experiment: Antiviral activity against HIV1 with protease G48V, L90M mutant by cell free assay; type: functional, organism-based
[6] = test system: Human immunodeficiency virus 1; experiment: Antiviral activity against […] HIV1 with protease A71V, I84V L90M mutant by cell free assay; type: functional, organism-based
[7] = test system: Human immunodeficiency virus 1; experiment: Antiviral activity against HIV1 with protease V32I, M46I A71V, V82A mutant by cell free assay; type: functional, organism-based
[8] = test system: Human immunodeficiency virus 1; experiment: Antiviral activity against HIV1 with protease V32I, M46I V82A mutant by cell free assay; type: functional, organism-based
[9] = test system: Human immunodeficiency virus 1; experiment: Antiviral activity against HIV1 with protease M46I, V82F, I84V mutant by cell free assay; type: functional, organism-based
[10] = molecular target: Human immunodeficiency virus type 1 protease (Human immunodeficiency virus 1, UniProt Q72874, I84V/L63P/V82T); experiment: Inhibition of HIV1 protease L63P, V82T, I84V mutant
Human immunodeficiency virus type 1 protease, sequence (Q72874 entry or part of it I84V/L63P/V82T): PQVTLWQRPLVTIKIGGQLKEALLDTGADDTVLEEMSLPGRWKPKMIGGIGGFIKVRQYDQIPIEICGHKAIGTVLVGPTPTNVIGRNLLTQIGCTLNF

Protease, sequence (Q9YQ12 whole entry): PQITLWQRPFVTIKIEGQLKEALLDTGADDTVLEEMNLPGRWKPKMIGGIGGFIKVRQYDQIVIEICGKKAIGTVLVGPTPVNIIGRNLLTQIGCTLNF

CC(C)CN(C[C@@H](O)[C@H](Cc1ccccc1)NC(=O)O[C@H]1CO[C@H]2OCC[C@H]21)S(=O)(=O)c1ccc(N)cc1
EC50 [1]: 0.004 µM

COC(=O)N[C@H](C(=O)N(Cc1ccc(Br)cc1)C[C@@](O)(Cc1ccccc1)C(=O)N[C@H]1c2ccccc2C[C@H]1O)C(C)(C)C
EC50 [1]: > 10 µM | CC50 at 120 h [2]: > 10 µM

COC(=O)N[C@H](C(=O)NN(Cc1ccccc1)C[C@](O)(Cc1ccccc1)C(=O)N[C@H]1c2ccccc2C[C@H]1O)C(C)(C)C
Ki (Protease): > 5 µM | EC50 [1]: > 10 µM

COC(=O)N[C@H](C(=O)NN(Cc1ccc(-c2cccnc2)cc1)C[C@@](O)(Cc1ccccc1)C(=O)N[C@H]1c2ccccc2C[C@H]1O)C(C)(C)C
clearance [3]: 154 µL/min/mg | CC50 at 120 h [2]: > 10 µM

COC(=O)N[C@H](C(=O)NN(Cc1ccccc1)C[C@@](O)(Cc1ccccc1)C(=O)N[C@H]1c2ccccc2C[C@H]1O)C(C)(C)C
Ki (Protease): > 5 µM | EC50 [1]: > 10 µM

CC(C)(C)NC(=O)[C@@H]1CN(Cc2cccnc2)CCN1C[C@@H](O)C[C@@H](Cc1ccccc1)C(=O)N[C@H]1c2ccccc2C[C@H]1O
EC50 [1]: 0.05 µM

COC(=O)N[C@H](C(=O)NN(CC[C@](O)(Cc1ccccc1)C(=O)N[C@H]1c2ccccc2C[C@H]1O)Cc1ccc(Br)cc1)C(C)(C)C
Ki (Protease): > 5 µM | EC50 [1]: > 10 µM | CC50 at 120 h [2]: > 10 µM

CNC(=O)[C@@H](NC(=O)[C@](O)(CCN(Cc1ccc(Br)cc1)NC(=O)[C@@H](NC(=O)OC)C(C)(C)C)Cc1ccccc1)C(C)(C)C
Ki (Protease): 2.2 µM | EC50 [1]: > 10 µM | CC50 at 120 h [2]: > 10 µM

COC(=O)N[C@H](C(=O)NN(CC[C@@](O)(Cc1ccccc1)C(=O)N[C@H]1c2ccccc2C[C@H]1O)Cc1ccc(-c2ccc(NC(C)=O)cc2)cc1)C(C)(C)C
Ki (Protease): 0.0018 µM | EC50 [1]: 0.03 µM | CC50 at 120 h [2]: > 10 µM

CNC(=O)[C@@H](NC(=O)[C@@](O)(CCN(Cc1ccc(Br)cc1)NC(=O)[C@@H](NC(=O)OC)C(C)(C)C)Cc1ccccc1)C(C)C
Ki (Protease): 0.0029 µM | EC50 [1]: 0.16 µM | CC50 at 120 h [2]: > 10 µM

COCCNC(=O)[C@@H](NC(=O)[C@@](O)(CCN(Cc1ccc(Br)cc1)NC(=O)[C@@H](NC(=O)OC)C(C)(C)C)Cc1ccccc1)C(C)C
Ki (Protease): 0.0032 µM | EC50 [1]: 0.17 µM | CC50 at 120 h [2]: > 10 µM

COC(=O)N[C@H](C(=O)NN(CC[C@@](O)(Cc1ccccc1)C(=O)N[C@H]1c2ccccc2C[C@H]1O)Cc1ccc(-c2cnn(C)c2)cc1)C(C)(C)C
Ki (Protease): 0.0017 µM | EC50 [1]: 0.01 µM | CC50 at 120 h [2]: > 10 µM

COC(=O)N[C@H](C(=O)NN(CC[C@@](O)(Cc1ccccc1)C(=O)N[C@H]1c2ccccc2C[C@H]1O)Cc1ccc(Br)cc1)C(C)(C)C
clearance [3]: > 300 µL/min/mg | Ki (Protease): 0.0029 µM | EC50 [1]: 0.04 µM | CC50 at 120 h [2]: 7.9 µM | Papp [4]: 420 nm/s | EC50 [5]: 0.008 µM | EC50 [6]: 0.044 µM | EC50 [7]: 0.07 µM | EC50 [8]: 0.074 µM | EC50 [9]: 0.24 µM | Ki [10]: 0.03 µM

COC(=O)N[C@H](C(=O)NN(CC[C@@](O)(Cc1ccccc1)C(=O)N[C@H]1c2ccccc2C[C@H]1O)Cc1ccc(-c2ccc3c(c2)OCO3)cc1)C(C)(C)C
Ki (Protease): 0.008 µM | EC50 [1]: 0.003 µM | CC50 at 120 h [2]: 6.1 µM

CNC(=O)[C@@H](NC(=O)[C@@](O)(CCN(Cc1ccc(Br)cc1)NC(=O)[C@@H](NC(=O)OC)C(C)(C)C)Cc1ccccc1)C(C)(C)C
Ki (Protease): 0.0017 µM | EC50 [1]: 0.072 µM | CC50 at 120 h [2]: > 10 µM

CNC(=O)[C@@H](NC(=O)[C@](O)(CCN(Cc1ccc(Br)cc1)NC(=O)[C@@H](NC(=O)OC)C(C)(C)C)Cc1ccccc1)C(C)C
Ki (Protease): 1.24 µM | EC50 [1]: > 10 µM | CC50 at 120 h [2]: > 10 µM

COC(=O)N[C@H](C(=O)NN(CC[C@@](O)(Cc1ccccc1)C(=O)N[C@H]1c2ccccc2C[C@H]1O)Cc1ccc(-c2ccccc2)cc1)C(C)(C)C
Ki (Protease): 0.012 µM | EC50 [1]: 0.008 µM | CC50 at 120 h [2]: > 10 µM

COC(=O)N[C@H](C(=O)NN(CC[C@@](O)(Cc1ccccc1)C(=O)N[C@H]1c2ccccc2C[C@H]1O)Cc1ccc(-c2ccccn2)cc1)C(C)(C)C
clearance [3]: 20 µL/min/mg | EC50 [1]: 0.007 µM | CC50 at 120 h [2]: > 10 µM | Papp [4]: 35 nm/s | EC50 [5]: 0.008 µM | EC50 [6]: 0.007 µM | EC50 [7]: 0.006 µM | EC50 [8]: 0.024 µM | EC50 [9]: 0.13 µM

COC(=O)N[C@H](C(=O)NN(CC[C@@](O)(Cc1ccccc1)C(=O)N[C@H]1c2ccccc2C[C@H]1O)Cc1ccc(-c2cccnc2)cc1)C(C)(C)C
clearance [3]: > 300 µL/min/mg | Ki (Protease): 0.0012 µM | EC50 [1]: 0.009 µM | CC50 at 120 h [2]: 4.9 µM | Papp [4]: 260 nm/s | EC50 [5]: 0.01 µM | EC50 [6]: 0.019 µM | EC50 [7]: 0.014 µM | EC50 [8]: 0.027 µM | EC50 [9]: 0.6 µM | Ki [10]: 0.016 µM

COC(=O)N[C@H](C(=O)NN(CC[C@@](O)(Cc1ccccc1)C(=O)N[C@H]1c2ccccc2C[C@H]1O)Cc1ccc(-c2ccncc2)cc1)C(C)(C)C
Ki (Protease): 0.0023 µM | EC50 [1]: 0.003 µM | CC50 at 120 h [2]: > 10 µM

COC(=O)N[C@H](C(=O)NN(CC[C@@](O)(Cc1ccccc1)C(=O)N[C@H]1c2ccccc2C[C@H]1O)Cc1ccc(-c2cc(F)cc(F)c2)cc1)C(C)(C)C
Ki (Protease): 0.011 µM | EC50 [1]: 0.013 µM | CC50 at 120 h [2]: > 10 µM

COC(=O)N[C@H](C(=O)NN(CC[C@@](O)(Cc1ccccc1)C(=O)N[C@H]1c2ccccc2C[C@H]1O)Cc1ccc(-c2c(C)noc2C)cc1)C(C)(C)C
Ki (Protease): 0.0028 µM | EC50 [1]: 0.005 µM | CC50 at 120 h [2]: > 10 µM

COC(=O)N[C@H](C(=O)NN(CC[C@@](O)(Cc1ccccc1)C(=O)N[C@H]1c2ccccc2C[C@H]1O)Cc1ccccc1)C(C)(C)C
Ki (Protease): 0.0023 µM | EC50 [1]: 0.19 µM | CC50 at 120 h [2]: > 10 µM

COC(=O)N[C@H](C(=O)NN(CCc1ccccc1)CC[C@@](O)(Cc1ccccc1)C(=O)N[C@H]1c2ccccc2C[C@H]1O)C(C)(C)C
Ki (Protease): 0.0082 µM | EC50 [1]: 6.8 µM

COCCNC(=O)[C@@H](NC(=O)[C@](O)(CCN(Cc1ccc(Br)cc1)NC(=O)[C@@H](NC(=O)OC)C(C)(C)C)Cc1ccccc1)C(C)C
Ki (Protease): 2.75 µM | EC50 [1]: > 10 µM | CC50 at 120 h [2]: > 10 µM

COC(=O)N[C@H](C(=O)N[C@@H](Cc1ccccc1)[C@@H](O)CN(Cc1ccc(-c2ccccn2)cc1)NC(=O)[C@@H](NC(=O)OC)C(C)(C)C)C(C)(C)C [ATAZANAVIR]
Ki (Protease): 0.0005 µM

Cc1cccc(C)c1OCC(=O)N[C@@H](Cc1ccccc1)[C@@H](O)C[C@H](Cc1ccccc1)NC(=O)[C@H](C(C)C)N1CCCNC1=O [LOPINAVIR]
EC50 [1]: 0.01 µM

CC(C)c1nc(CN(C)C(=O)N[C@H](C(=O)N[C@@H](Cc2ccccc2)C[C@H](O)[C@H](Cc2ccccc2)NC(=O)OCc2cncs2)C(C)C)cs1 [RITONAVIR]
EC50 [1]: 0.05 µM
